Test results as given in patent US10947188B2, “Small molecule ferroptosis inducers” (THE TRUSTEES OF COLUMBIA UNIVERSITY IN THE CITY OF NEW YORK, priority 2016, dated 2021).
Like-named read-outs stand apart in the source and are kept apart here.

Key:
HT-1080 = assay: Modulatory profiling: Alamar Blue viability, lethal compound cotreated with death modulator (EC50, AUC); format: cell-based; parameters: AUC, modulator HT.3MA / AUC, modulator HT.ALLN / AUC HT.ATA / AUC HT.ActD / AUC HT.BHA / AUC HT.BHT / AUC HT.BocD / AUC HT.CHX / AUC HT.Co2+ / AUC HT.DPQ / AUC HT.EGTA / AUC HT.Lmim / AUC HT.NAD+ / AUC HT.Nec-1 / AUC HT.SP600125 / AUC HT.TLCK / AUC HT.U0126: unit not given beside the values; settings: for AUC HT.ATA: HT-1080, modulator ATA; for AUC HT.ActD: HT-1080, modulator ActD; for AUC HT.BHA: HT-1080, modulator BHA; for AUC HT.BHT: HT-1080, modulator BHT; for AUC HT.BocD: HT-1080, modulator BocD; for AUC HT.CHX: HT-1080, modulator CHX; for AUC HT.Co2+: HT-1080, modulator Co2+; for AUC HT.CspA: HT-1080, modulator CspA; for AUC HT.DPQ: HT-1080, modulator DPQ; for AUC HT.Gd3+: HT-1080, modulator Gd3+; for AUC HT.LNAME: HT-1080, modulator LNAME; for AUC HT.Lmim: HT-1080, modulator Lmim; for AUC HT.NAD+: HT-1080, modulator NAD+; for AUC HT.NMMA: HT-1080, modulator NMMA; for HT.atoc (AUC) / HT.bCarotene (AUC) / HT.deferox (AUC) / HT.digoxin (AUC) / HT.trolox (AUC) / HT.zVAD (AUC): HT-1080; for HT.atoc (AUC): modulator atoc; for HT.bCarotene (AUC): modulator bCarotene; for HT.deferox (AUC): modulator deferox; for HT.digoxin (AUC): modulator digoxin; for HT.trolox (AUC): modulator trolox; for HT.zVAD (AUC): modulator zVAD; for AUC, modulator HT.3MA / AUC, modulator HT.ALLN: HT-1080 cells, modulatory profile value (AUC); for AUC, modulator HT.3MA: lethal compound cotreated with modulator 3MA; for AUC, modulator HT.ALLN: lethal compound cotreated with modulator ALLN; for AUC HT.BHA: reference of the scale not given here; for AUC HT.EGTA: reference of the scale not given here
BJeLR = assay: as above; format: cell-based, human; parameters: AUC, modulator BJ.Gd3+ / AUC, modulator BJ.LNAME / AUC, modulator BJ.Lmin / AUC, modulator BJ.3MA / AUC, modulator BJ.ALLN / AUC, modulator BJ.Boc D / AUC, modulator BJ.CHX / AUC, modulator BJ.Co2+ / AUC, modulator BJ.Nec-1 / AUC, modulator BJ.Pepstatin / AUC, modulator BJ.TLCK / AUC, modulator BJ.atoc / AUC, modulator BJ.trolox / AUC, modulator BJ.zVAD: unit not given beside the values; settings: BJeLR cells, modulatory profile value (AUC); for AUC, modulator BJ.3MA: lethal compound cotreated with modulator 3MA; for AUC, modulator BJ.ALLN: lethal compound cotreated with modulator ALLN; for AUC, modulator BJ.Boc D: lethal compound cotreated with modulator Boc D; for AUC, modulator BJ.CHX: lethal compound cotreated with modulator CHX; for AUC, modulator BJ.Co2+: lethal compound cotreated with modulator Co2+; for AUC, modulator BJ.DPQ: lethal compound cotreated with modulator DPQ; for AUC, modulator BJ.Gd3+: lethal compound cotreated with modulator Gd3+; for AUC, modulator BJ.LNAME: lethal compound cotreated with modulator LNAME; for AUC, modulator BJ.Lmin/NAD+: lethal compound cotreated with modulator Lmin/NAD+; for AUC, modulator BJ.Lmin: lethal compound cotreated with modulator Lmin; for AUC, modulator BJ.NAD+: lethal compound cotreated with modulator NAD+; for AUC, modulator BJ.NMMA: lethal compound cotreated with modulator NMMA; for AUC, modulator BJ.Nec-1: lethal compound cotreated with modulator Nec-1; for AUC, modulator BJ.Pepstatin: lethal compound cotreated with modulator Pepstatin; for AUC, modulator BJ.TLCK: lethal compound cotreated with modulator TLCK; for AUC, modulator BJ.atoc: lethal compound cotreated with modulator atoc; for AUC, modulator BJ.trolox: lethal compound cotreated with modulator trolox; for AUC, modulator BJ.zVAD: lethal compound cotreated with modulator zVAD; for AUC, modulator BJ.3MA: reference of the scale not given here; for AUC, modulator BJ.ALLN: reference of the scale not given here; for AUC, modulator BJ.Boc D: reference of the scale not given here; for AUC, modulator BJ.CHX: reference of the scale not given here; for AUC, modulator BJ.Co2+: reference of the scale not given here; for AUC, modulator BJ.DPQ: reference of the scale not given here; for AUC, modulator BJ.Gd3+: reference of the scale not given here; for AUC, modulator BJ.LNAME: reference of the scale not given here; for AUC, modulator BJ.NAD+: reference of the scale not given here; for AUC, modulator BJ.NMMA: reference of the scale not given here; for AUC, modulator BJ.Nec-1: reference of the scale not given here; for AUC, modulator BJ.Pepstatin: reference of the scale not given here; for AUC, modulator BJ.TLCK: reference of the scale not given here

COc1ccc(C(=O)C(CN2CCCC2)c2ccccc2)cc1 (stereo not shown) [CIL72]
AUC HT.ATA (HT-1080): 0.05533
AUC HT.ActD (HT-1080): 0.02924
AUC HT.BHA (HT-1080): −0.04013
AUC HT.BHT (HT-1080): −0.1002
AUC HT.BocD (HT-1080): −0.02415
AUC HT.CHX (HT-1080): 0.1147
AUC HT.Co2+ (HT-1080): 0.1163
AUC HT.CspA (HT-1080): −0.01912
AUC HT.DPQ (HT-1080): −0.03157
AUC HT.EGTA (HT-1080; HT-1080, modulator EGTA): 0.009608
AUC HT.Gd3+ (HT-1080): −9.532E−05
AUC HT.LNAME (HT-1080): 0.01226
AUC HT.Lmim (HT-1080): −0.001821
AUC HT.NAD+ (HT-1080): 0.004195
AUC HT.NMMA (HT-1080): −0.004443
HT.atoc (AUC) (HT-1080): −0.02111
HT.bCarotene (AUC) (HT-1080): −0.01233
HT.deferox (AUC) (HT-1080): 0.1972
HT.digoxin (AUC) (HT-1080): −0.01413
HT.trolox (AUC) (HT-1080): −0.03591
HT.zVAD (AUC) (HT-1080): 0.05314
AUC, modulator BJ.3MA (BJeLR): 0.01714
AUC, modulator BJ.ALLN (BJeLR): 0.00459
AUC, modulator BJ.Boc D (BJeLR): 0.02672
AUC, modulator BJ.CHX (BJeLR): 0.2585
AUC, modulator BJ.Co2+ (BJeLR): 0.1176
AUC, modulator BJ.DPQ (BJeLR): −0.01087
AUC, modulator BJ.Gd3+ (BJeLR): 0.03013
AUC, modulator BJ.LNAME (BJeLR): 0.001053
AUC, modulator BJ.Lmin/NAD+ (BJeLR): 0.07102
AUC, modulator BJ.Lmin (BJeLR): 0.004844
AUC, modulator BJ.NAD+ (BJeLR): −0.0366
AUC, modulator BJ.NMMA (BJeLR): 0.01422
AUC, modulator BJ.Nec-1 (BJeLR): −0.02464
AUC, modulator BJ.Pepstatin (BJeLR): 0.01988
AUC, modulator BJ.TLCK (BJeLR): 0.03641

Cc1cccc(-n2ncc(Cl)c(Cl)c2=O)c1 [CIL22]
AUC HT.EGTA (HT-1080): −0.01254
AUC HT.ATA (HT-1080): 0.05908
AUC HT.ActD (HT-1080): −0.02402
AUC HT.BHA (HT-1080): 0.001925
AUC HT.BHT (HT-1080): −0.05238
AUC HT.BocD (HT-1080): 0.008628
AUC HT.CHX (HT-1080): 0.01938
AUC HT.Co2+ (HT-1080): −0.03478
AUC HT.CspA (HT-1080): −0.03611
AUC HT.DPQ (HT-1080): −0.00934
AUC HT.Gd3+ (HT-1080): −0.004534
AUC HT.LNAME (HT-1080): 0.04608
AUC HT.Lmim (HT-1080): 0.01659
AUC HT.NAD+ (HT-1080): 0.01014
AUC HT.NMMA (HT-1080): 0.01444
HT.atoc (AUC) (HT-1080): 0.04912
HT.bCarotene (AUC) (HT-1080): −0.01174
HT.deferox (AUC) (HT-1080): 0.06507
HT.digoxin (AUC) (HT-1080): 0.05675
HT.trolox (AUC) (HT-1080): −0.004921
HT.zVAD (AUC) (HT-1080): 0.02835
AUC, modulator HT.3MA (HT-1080): −0.01606
AUC, modulator HT.ALLN (HT-1080): 0.02849
AUC, modulator BJ.3MA (BJeLR): −0.04329
AUC, modulator BJ.ALLN (BJeLR): −0.03232
AUC, modulator BJ.Boc D (BJeLR): −0.0406
AUC, modulator BJ.CHX (BJeLR): 0.1136
AUC, modulator BJ.Co2+ (BJeLR): 0.07615
AUC, modulator BJ.DPQ (BJeLR): 0.005752
AUC, modulator BJ.Gd3+ (BJeLR): 0.005899
AUC, modulator BJ.LNAME (BJeLR): 0.0123
AUC, modulator BJ.Lmin/NAD+ (BJeLR): 0.07278
AUC, modulator BJ.Lmin (BJeLR): 0.002645
AUC, modulator BJ.NAD+ (BJeLR): −0.005902
AUC, modulator BJ.NMMA (BJeLR): −0.007412
AUC, modulator BJ.Nec-1 (BJeLR): −0.01633
AUC, modulator BJ.Pepstatin (BJeLR): 0.02724
AUC, modulator BJ.TLCK (BJeLR): −0.01321
AUC, modulator BJ.atoc (BJeLR): 0.01015
AUC, modulator BJ.trolox (BJeLR): 0.0184
AUC, modulator BJ.zVAD (BJeLR): 0.03093

CC(C(NNC(=O)c1ccc(C(F)(F)F)cc1)c1ccc(Br)cc1)[N+](=O)[O-] (stereo not shown) [CIL87]
AUC HT.ATA (HT-1080): 0.1137
AUC HT.ActD (HT-1080): −0.007586
AUC HT.BHA (HT-1080): −0.003358
AUC HT.BHT (HT-1080): −0.08317
AUC HT.BocD (HT-1080): −0.007134
AUC HT.CHX (HT-1080): 0.0673
AUC HT.Co2+ (HT-1080): 0.03163
AUC HT.CspA (HT-1080): −0.05358
AUC HT.DPQ (HT-1080): −0.02562
AUC HT.EGTA (HT-1080; HT-1080, modulator EGTA): 0.005305
AUC HT.Gd3+ (HT-1080): −0.02756
AUC HT.LNAME (HT-1080): 0.005257
AUC HT.Lmim (HT-1080): −0.002116
AUC HT.NAD+ (HT-1080): −0.001926
AUC HT.NMMA (HT-1080): −0.01237
HT.atoc (AUC) (HT-1080): 0.05929
HT.bCarotene (AUC) (HT-1080): 0.01927
HT.deferox (AUC) (HT-1080): 0.07034
HT.digoxin (AUC) (HT-1080): 0.04582
HT.trolox (AUC) (HT-1080): −0.03188
HT.zVAD (AUC) (HT-1080): 0.02258
AUC, modulator BJ.3MA (BJeLR): −0.002764
AUC, modulator BJ.ALLN (BJeLR): −0.08721
AUC, modulator BJ.Boc D (BJeLR): −0.0134
AUC, modulator BJ.CHX (BJeLR): 0.295
AUC, modulator BJ.Co2+ (BJeLR): 0.1416
AUC, modulator BJ.DPQ (BJeLR): −0.03202
AUC, modulator BJ.Gd3+ (BJeLR): 0.0149
AUC, modulator BJ.LNAME (BJeLR): 0.02319
AUC, modulator BJ.Lmin/NAD+ (BJeLR): 0.07639
AUC, modulator BJ.Lmin (BJeLR): 0.0007714
AUC, modulator BJ.NAD+ (BJeLR): −0.03293
AUC, modulator BJ.NMMA (BJeLR): −0.007384
AUC, modulator BJ.Nec-1 (BJeLR): −0.0482
AUC, modulator BJ.Pepstatin (BJeLR): −0.03283
AUC, modulator BJ.TLCK (BJeLR): 0.003206

CC(C)=CCCC1=CCC(CNCCCN(C)C)C(C)C1 (stereo not shown) [CIL28]
AUC HT.ATA (HT-1080): 0.06113
AUC HT.ActD (HT-1080): −0.01352
AUC HT.BHA (HT-1080): −0.1362
AUC HT.BHT (HT-1080): −0.1108
AUC HT.BocD (HT-1080): 0.01462
AUC HT.CHX (HT-1080): 0.0328
AUC HT.Co2+ (HT-1080): −0.03292
AUC HT.CspA (HT-1080): −0.01858
AUC HT.DPQ (HT-1080): 0.04404
AUC HT.EGTA (HT-1080; HT-1080, modulator EGTA): 0.005868
AUC HT.Gd3+ (HT-1080): −0.02583
AUC HT.LNAME (HT-1080): −0.0045
AUC HT.Lmim (HT-1080): 0.001311
AUC HT.NAD+ (HT-1080): 0.007089
AUC HT.NMMA (HT-1080): −0.009763
HT.atoc (AUC) (HT-1080): 0.1068
HT.bCarotene (AUC) (HT-1080): −0.03341
HT.deferox (AUC) (HT-1080): −0.04312
HT.digoxin (AUC) (HT-1080): −0.007104
HT.trolox (AUC) (HT-1080): −0.03025
HT.zVAD (AUC) (HT-1080): −0.009003
AUC, modulator HT.3MA (HT-1080): 0.0937
AUC, modulator HT.ALLN (HT-1080): 0.04719
AUC, modulator BJ.3MA (BJeLR): 0.0433
AUC, modulator BJ.ALLN (BJeLR): −0.02065
AUC, modulator BJ.Boc D (BJeLR): −0.02549
AUC, modulator BJ.CHX (BJeLR): −0.01119
AUC, modulator BJ.Co2+ (BJeLR): 0.03417
AUC, modulator BJ.DPQ (BJeLR): 0.009235
AUC, modulator BJ.Gd3+ (BJeLR): −0.07741
AUC, modulator BJ.LNAME (BJeLR): −0.04858
AUC, modulator BJ.Lmin/NAD+ (BJeLR): −0.02578
AUC, modulator BJ.Lmin (BJeLR): −0.053
AUC, modulator BJ.NAD+ (BJeLR): 0.06231
AUC, modulator BJ.NMMA (BJeLR): 0.000264
AUC, modulator BJ.Nec-1 (BJeLR): 0.005737
AUC, modulator BJ.Pepstatin (BJeLR): 0.06166
AUC, modulator BJ.TLCK (BJeLR): −0.09417
AUC, modulator BJ.atoc (BJeLR): 0.05295
AUC, modulator BJ.trolox (BJeLR): 0.06039
AUC, modulator BJ.zVAD (BJeLR): 0.006234
